Test results: the supplement of paper PMC10307832

How the values were obtained:
Test in all cases: relative viability (nuclei count vs DMSO), 5 days (fraction); higher = more cells survive
[1] = compound: C#Cc1cccc(Nc2ncnc3cc(OCCOC)c(OCCOC)cc23)c1 [Erlotinib] + CC(=O)Nc1cccc(-n2c(=O)n(C3CC3)c(=O)c3c(Nc4ccc(I)cc4F)n(C)c(=O)c(C)c32)c1 [Trametinib] (partner 0.02 µM)
In short: (§1)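 Values are medians from duplicate plates. Each reflects relative viability, defined as the nuclei count of treated wells over that of vehicle wells. Lung cancer cell lines in 1536-well plates were pin-tool dosed one day after seeding with one drug alone or with a fixed anchor-drug dose plus five library-drug doses (not always all listed) in √10 steps, then fixed, stained and imaged at 4× after 5 days.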

[2] = compound: O=C(Nc1c[nH]nc1-c1nc2ccc(CN3CCOCC3)cc2[nH]1)NC1CC1 [AT9283] + CC1(C)CCC(c2ccc(Cl)cc2)=C(CN2CCN(c3ccc(C(=O)NS(=O)(=O)c4ccc(N[C@H](CCN5CCOCC5)CSc5ccccc5)c(S(=O)(=O)C(F)(F)F)c4)cc3)CC2)C1 [Navitoclax] (partner 0.5 µM)
In short: as §1

[3] = compound: C#Cc1cccc(Nc2ncnc3cc(OCCOC)c(OCCOC)cc23)c1 [Erlotinib] + CS(=O)(=O)CCNCc1ccc(-c2ccc3ncnc(Nc4ccc(OCc5cccc(F)c5)c(Cl)c4)c3c2)o1 [Lapatinib] (partner 2 µM)
In short: as §1

[4] = compound: C#Cc1cccc(Nc2ncnc3cc(OCCOC)c(OCCOC)cc23)c1 [Erlotinib] + Cc1cc(Nc2cc(N3CCN(C)CC3)nc(Sc3ccc(NC(=O)C4CC4)cc3)n2)n[nH]1 [Tozasertib] (partner 0.1 µM)
In short: as §1

[5] = compound: C#Cc1cccc(Nc2ncnc3cc(OCCOC)c(OCCOC)cc23)c1 [Erlotinib] + O=C(CCCCCCC(=O)Nc1ccccc1)NO [Vorinostat] (partner 1 µM)
In short: as §1

HCC-15 gave a relative viability ([1]; first compound 0.02 µM) of 0.394, a relative viability ([1]; first compound 0.2 µM) of 0.344 and a relative viability ([1]; first compound 0.6325 µM) of 0.339. The relative viability ([1]; first compound 2 µM) was 0.347, the relative viability ([2]; first compound 0.003 µM) was 0.685 and the relative viability ([2]; first compound 0.03 µM) was 0.515. It also gave a relative viability ([2]; first compound 0.09487 µM) of 0.246, a relative viability ([2]; first compound 0.3 µM) of 0.148 and a relative viability ([3]; first compound 0.02 µM) of 0.939. It also gave a relative viability ([3]; first compound 0.2 µM) of 0.852, a relative viability ([3]; first compound 0.6325 µM) of 0.93 and a relative viability ([3]; first compound 2 µM) of 0.785. It also gave a relative viability ([4]; first compound 0.02 µM) of 0.411, a relative viability ([4]; first compound 0.2 µM) of 0.444 and a relative viability ([4]; first compound 0.6325 µM) of 0.398. The relative viability ([4]; first compound 2 µM) was 0.16, the relative viability ([5]; first compound 0.02 µM) was 0.876 and the relative viability ([5]; first compound 0.6325 µM) was 0.868. For the same cell line, the relative viability ([5]; first compound 2 µM) was 0.676.

HCC-44 was tested, and the relative viability ([1]; first compound 0.02 µM) was 1.07, the relative viability ([1]; first compound 0.2 µM) was 1.01 and the relative viability ([1]; first compound 0.6325 µM) was 1.1. For the same cell line, the relative viability ([1]; first compound 2 µM) was 0.981, the relative viability ([2]; first compound 0.003 µM) was 0.897 and the relative viability ([2]; first compound 0.03 µM) was 0.787. For the same cell line, the relative viability ([2]; first compound 0.09487 µM) was 0.823, the relative viability ([2]; first compound 0.3 µM) was 0.257 and the relative viability ([3]; first compound 0.2 µM) was 1.09. For the same cell line, the relative viability ([3]; first compound 0.6325 µM) was 1.03, the relative viability ([3]; first compound 2 µM) was 0.928 and the relative viability ([4]; first compound 0.02 µM) was 1.18. The relative viability ([4]; first compound 0.2 µM) was 0.421, the relative viability ([4]; first compound 0.6325 µM) was 1.04 and the relative viability ([4]; first compound 2 µM) was 0.711. It also gave a relative viability ([5]; first compound 0.02 µM) of 1.21, a relative viability ([5]; first compound 0.2 µM) of 1.13 and a relative viability ([5]; first compound 0.6325 µM) of 1.13. For the same cell line, the relative viability ([5]; first compound 2 µM) was 1.16.

Cell Line HCC-78 has a relative viability ([1]; first compound 0.02 µM) of 0.768, a relative viability ([1]; first compound 0.2 µM) of 0.524 and a relative viability ([1]; first compound 0.6325 µM) of 0.683. For the same cell line, the relative viability ([1]; first compound 2 µM) was 0.58, the relative viability ([2]; first compound 0.003 µM) was 0.721 and the relative viability ([2]; first compound 0.03 µM) was 0.511. The relative viability ([2]; first compound 0.09487 µM) was 0.169, the relative viability ([2]; first compound 0.3 µM) was 0.145 and the relative viability ([3]; first compound 0.02 µM) was 0.737. It also gave a relative viability ([3]; first compound 0.2 µM) of 0.742, a relative viability ([3]; first compound 0.6325 µM) of 0.696 and a relative viability ([3]; first compound 2 µM) of 0.701. The relative viability ([4]; first compound 0.02 µM) was 0.407, the relative viability ([4]; first compound 0.2 µM) was 0.289 and the relative viability ([4]; first compound 0.6325 µM) was 0.385. The relative viability ([4]; first compound 2 µM) was 0.402, the relative viability ([5]; first compound 0.02 µM) was 0.428 and the relative viability ([5]; first compound 0.2 µM) was 0.437. It also gave a relative viability ([5]; first compound 0.6325 µM) of 0.36 and a relative viability ([5]; first compound 2 µM) of 0.335.

HCC-366 gave a relative viability ([1]; first compound 0.02 µM) of 0.335, a relative viability ([1]; first compound 0.2 µM) of 0.294 and a relative viability ([1]; first compound 0.6325 µM) of 0.277. It also gave a relative viability ([1]; first compound 2 µM) of 0.215, a relative viability ([2]; first compound 0.003 µM) of 1.1 and a relative viability ([2]; first compound 0.03 µM) of 0.842. It also gave a relative viability ([2]; first compound 0.09487 µM) of 0.191, a relative viability ([2]; first compound 0.3 µM) of 0.0248 and a relative viability ([3]; first compound 0.02 µM) of 1.08. The relative viability ([3]; first compound 0.2 µM) was 1, the relative viability ([3]; first compound 0.6325 µM) was 1.33 and the relative viability ([3]; first compound 2 µM) was 1.09. For the same cell line, the relative viability ([4]; first compound 0.02 µM) was 0.0918, the relative viability ([4]; first compound 0.2 µM) was 0.0854 and the relative viability ([4]; first compound 0.6325 µM) was 0.0664. The relative viability ([4]; first compound 2 µM) was 0.039, the relative viability ([5]; first compound 0.02 µM) was 0.41 and the relative viability ([5]; first compound 0.2 µM) was 0.363. It also gave a relative viability ([5]; first compound 0.6325 µM) of 0.369 and a relative viability ([5]; first compound 2 µM) of 0.222.

In the case of HCC-827, the relative viability ([1]; first compound 0.02 µM) is reported as 0.205, the relative viability ([1]; first compound 0.2 µM) is reported as 0.159 and the relative viability ([1]; first compound 0.6325 µM) is reported as 0.148. The relative viability ([1]; first compound 2 µM) was 0.169, the relative viability ([2]; first compound 0.003 µM) was 0.995 and the relative viability ([2]; first compound 0.03 µM) was 0.879. The relative viability ([2]; first compound 0.09487 µM) was 0.449, the relative viability ([2]; first compound 0.3 µM) was 0.326 and the relative viability ([3]; first compound 0.02 µM) was 0.239. For the same cell line, the relative viability ([3]; first compound 0.2 µM) was 0.163, the relative viability ([3]; first compound 0.6325 µM) was 0.201 and the relative viability ([3]; first compound 2 µM) was 0.171. For the same cell line, the relative viability ([4]; first compound 0.02 µM) was 0.223, the relative viability ([4]; first compound 0.2 µM) was 0.114 and the relative viability ([4]; first compound 0.6325 µM) was 0.101. The relative viability ([4]; first compound 2 µM) was 0.126, the relative viability ([5]; first compound 0.02 µM) was 0.228 and the relative viability ([5]; first compound 0.2 µM) was 0.186. It also gave a relative viability ([5]; first compound 0.6325 µM) of 0.121 and a relative viability ([5]; first compound 2 µM) of 0.132.

HOP-62 gave a relative viability ([1]; first compound 0.02 µM) of 0.35, a relative viability ([1]; first compound 0.2 µM) of 0.364 and a relative viability ([1]; first compound 0.6325 µM) of 0.452. The relative viability ([1]; first compound 2 µM) was 0.36, the relative viability ([2]; first compound 0.003 µM) was 1.07 and the relative viability ([2]; first compound 0.03 µM) was 0.857. It also gave a relative viability ([2]; first compound 0.09487 µM) of 0.088, a relative viability ([2]; first compound 0.3 µM) of 0.106 and a relative viability ([3]; first compound 0.02 µM) of 1.08. For the same cell line, the relative viability ([3]; first compound 0.2 µM) was 1.09, the relative viability ([3]; first compound 0.6325 µM) was 0.94 and the relative viability ([3]; first compound 2 µM) was 1.04. It also gave a relative viability ([4]; first compound 0.02 µM) of 0.405, a relative viability ([4]; first compound 0.2 µM) of 0.409 and a relative viability ([4]; first compound 0.6325 µM) of 0.411. For the same cell line, the relative viability ([4]; first compound 2 µM) was 0.26, the relative viability ([5]; first compound 0.02 µM) was 0.714 and the relative viability ([5]; first compound 0.2 µM) was 0.492. For the same cell line, the relative viability ([5]; first compound 0.6325 µM) was 0.759 and the relative viability ([5]; first compound 2 µM) was 0.716.

In the case of IA-LM, the relative viability ([2]; first compound 0.003 µM) is reported as 0.952, the relative viability ([2]; first compound 0.03 µM) is reported as 0.372 and the relative viability ([2]; first compound 0.09487 µM) is reported as 0.112. The relative viability ([2]; first compound 0.3 µM) was 0.0779, the relative viability ([3]; first compound 0.02 µM) was 1.14 and the relative viability ([3]; first compound 0.2 µM) was 0.712. The relative viability ([3]; first compound 0.6325 µM) was 1.43, the relative viability ([3]; first compound 2 µM) was 0.73 and the relative viability ([5]; first compound 0.02 µM) was 0.905. It also gave a relative viability ([5]; first compound 0.2 µM) of 0.72 and a relative viability ([5]; first compound 2 µM) of 0.744.
